Legend:
Type in all cases: in vivo
[1] = tested on: chickweed (Stellaria media); assay: Test C postemergence; conditions: for Chickweed plant response rating: scale 0 to 100 (0 no effect, 100 complete control); for Plant response rating, Chickweed: scale 0 to 100
Method in brief: (§1)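 Greenhouse pot test: seeds treated preemergence, or plants at 2–18 cm (1- to 4-leaf stage) treated postemergence, with compound in non-phytotoxic solvent plus surfactant. Visual rating versus untreated controls after 12–14 days, scale 0 (no effect) to 100 (complete control); dash means not tested.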

[2] = tested on: woolly cupgrass (Eriochloa villosa); assay: Test C pre/postemergence; conditions: for Cupgrass, Woolly plant response rating: scale 0 to 100 (0 no effect, 100 complete control)
Method in brief: as §1

[3] = tested on: yellow nutsedge (Cyperus esculentus); assay: Test C pre/postemergence; conditions: for Nutsedge, Yellow plant response rating: scale 0 to 100 (0 no effect, 100 complete control)
Method in brief: as §1

[4] = tested on: velvetleaf (Abutilon theophrasti); assay: Test C pre/postemergence; conditions: for Velvetleaf plant response rating: scale 0 to 100 (0 no effect, 100 complete control)
Method in brief: as §1

[5] = tested on: goosegrass (Eleusine indica); assay: Test C pre/postemergence; conditions: for Goosegrass plant response rating: scale 0 to 100 (0 no effect, 100 complete control)
Method in brief: as §1

[6] = tested on: pigweed (Amaranthus retroflexus); assay: Test C pre/postemergence; conditions: for Pigweed plant response rating: scale 0 to 100 (0 no effect, 100 complete control)
Method in brief: as §1

[7] = tested on: common ragweed (Ambrosia elatior); assay: Test C pre/postemergence; conditions: for Ragweed plant response rating: scale 0 to 100 (0 no effect, 100 complete control)
Method in brief: as §1

[8] = tested on: bermudagrass (Cynodon dactylon); assay: Test C pre/postemergence; conditions: for Bermudagrass plant response rating: scale 0 to 100 (0 no effect, 100 complete control)
Method in brief: as §1

[9] = Postemergence, 250 g ai/ha, scale 0 to 100
[10] = Postemergence, 500 g ai/ha, scale 0 to 100
[11] = Preemergence, 62 g ai/ha, scale 0 to 100, 0 no effect, 100 complete control
[12] = Preemergence, 125 g ai/ha, scale 0 to 100
[13] = Preemergence, 250 g ai/ha, scale 0 to 100
[14] = Preemergence, 500 g ai/ha, scale 0 to 100

For `Nc1nc(C2CC2)nc(C=NO)c1Br` [Compound 27], the “Chickweed plant response rating” value ([1]; 62 g ai/ha) was 0, the “Chickweed plant response rating” value ([1]; 125 g ai/ha) was 0 and the “Plant response rating, Chickweed” value ([1]; 250 g ai/ha) was 0. The “Plant response rating, Chickweed” value ([1]; 500 g ai/ha) was 0, the “Cupgrass, Woolly plant response rating” value ([2]; Postemergence, 62 g ai/ha) was 0 and the “Cupgrass, Woolly plant response rating” value ([2]; Postemergence, 125 g ai/ha) was 0. The “Plant response rating, Cupgrass, Woolly” value [2, 9] was 0, the “Plant response rating, Cupgrass, Woolly” value [2, 10] was 0 and the “Plant response rating, Cupgrass, Woolly” value [2, 11] was 0. For the same molecule, the “Plant response rating, Cupgrass, Woolly” value [2, 12] was 0, the “Plant response rating, Cupgrass, Woolly” value [2, 13] was 10 and the “Plant response rating, Cupgrass, Woolly” value [2, 14] was 15. For the same molecule, the “Nutsedge, Yellow plant response rating” value ([3]; Postemergence, 62 g ai/ha) was 0, the “Nutsedge, Yellow plant response rating” value ([3]; Postemergence, 125 g ai/ha) was 0 and the “Plant response rating, Nutsedge, Yellow” value [3, 9] was 0. The “Plant response rating, Nutsedge, Yellow” value [3, 10] was 0, the “Plant response rating, Nutsedge, Yellow” value [3, 11] was 0 and the “Plant response rating, Nutsedge, Yellow” value [3, 12] was 0. The “Plant response rating, Nutsedge, Yellow” value [3, 13] was 0, the “Plant response rating, Nutsedge, Yellow” value [3, 14] was 20 and the “Velvetleaf plant response rating” value ([4]; Postemergence, 62 g ai/ha) was 0. For the same molecule, the “Velvetleaf plant response rating” value ([4]; Postemergence, 125 g ai/ha) was 0, the “Plant response rating, Velvetleaf” value [4, 9] was 0 and the “Plant response rating, Velvetleaf” value [4, 10] was 30. The “Plant response rating, Velvetleaf” value [4, 11] was 0, the “Plant response rating, Velvetleaf” value [4, 12] was 0 and the “Plant response rating, Velvetleaf” value [4, 13] was 50. For the same molecule, the “Plant response rating, Velvetleaf” value [4, 14] was 70, the “Goosegrass plant response rating” value ([5]; Postemergence, 62 g ai/ha) was 0 and the “Goosegrass plant response rating” value ([5]; Postemergence, 125 g ai/ha) was 0. The “Plant response rating, Goosegrass” value [5, 9] was 0, the “Plant response rating, Goosegrass” value [5, 10] was 0 and the “Plant response rating, Goosegrass” value [5, 11] was 0. For the same molecule, the “Plant response rating, Goosegrass” value [5, 12] was 0, the “Plant response rating, Goosegrass” value [5, 13] was 0 and the “Plant response rating, Goosegrass” value [5, 14] was 20. The “Pigweed plant response rating” value ([6]; Postemergence, 62 g ai/ha) was 5, the “Pigweed plant response rating” value ([6]; Postemergence, 125 g ai/ha) was 20 and the “Plant response rating, Pigweed” value [6, 9] was 30. For the same molecule, the “Plant response rating, Pigweed” value [6, 10] was 80, the “Plant response rating, Pigweed” value [6, 11] was 20 and the “Plant response rating, Pigweed” value [6, 12] was 80. The “Plant response rating, Pigweed” value [6, 13] was 90, the “Plant response rating, Pigweed” value [6, 14] was 100 and the “Ragweed plant response rating” value ([7]; Postemergence, 62 g ai/ha) was 5. The “Ragweed plant response rating” value ([7]; Postemergence, 125 g ai/ha) was 20, the “Plant response rating, Ragweed” value [7, 9] was 40 and the “Plant response rating, Ragweed” value [7, 10] was 50. For the same molecule, the “Plant response rating, Ragweed” value [7, 11] was 20, the “Plant response rating, Ragweed” value [7, 12] was 65 and the “Plant response rating, Ragweed” value [7, 13] was 85. The “Plant response rating, Ragweed” value [7, 14] was 95, the “Bermudagrass plant response rating” value ([8]; Postemergence, 62 g ai/ha) was 0 and the “Bermudagrass plant response rating” value ([8]; Postemergence, 125 g ai/ha) was 0. For the same molecule, the “Plant response rating, Bermudagrass” value [8, 9] was 0, the “Plant response rating, Bermudagrass” value [8, 10] was 30 and the “Plant response rating, Bermudagrass” value [8, 11] was 0. The “Plant response rating, Bermudagrass” value [8, 12] was 0, the “Plant response rating, Bermudagrass” value [8, 13] was 0 and the “Plant response rating, Bermudagrass” value [8, 14] was 0.

Reference: patent US8802597B2, “Herbicidal pyrimidines” (E I du Pont de Nemours and Company, priority 2003, dated 2014)
